In ChEMBL document CHEMBL1201862, “PubChem BioAssay data set” (2004):
Values belong to the molecule of their own block, whether it stands above or below them. Calls of active or inactive are those of the source.

What was measured:
Format in all cases: functional
[1] = molecular target: Cell division cycle 7-related protein kinase (Homo sapiens, UniProt O00311);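 further: value obtained from a kinome-wide kinase panel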
[2] = molecular target: ALK tyrosine kinase receptor (Homo sapiens, UniProt Q9UM73);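 further: ALK tested as one member of a kinase panel screen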
[3] = molecular target: Cyclin-dependent kinase 8 (Homo sapiens, UniProt P49336); test: Navigating the Kinome. Panel member name: CDK8
[4] = molecular target: Rho-associated protein kinase 2 (Homo sapiens, UniProt O75116)
[5] = molecular target: Serine/threonine-protein kinase N2 (Homo sapiens, UniProt Q16513)
[6] = molecular target: Tyrosine-protein kinase FRK (Homo sapiens, UniProt P42685);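 further: FRK tested as one member of a kinome panel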
[7] = molecular target: Megakaryocyte-associated tyrosine-protein kinase (Homo sapiens, UniProt P42679);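 further: affinity measured as one member of a kinase panel (Navigating the Kinome) against MATK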
[8] = molecular target: Vascular endothelial growth factor receptor 1 (Homo sapiens, UniProt P17948);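 further: measured within a kinome-wide profiling panel, FLT1 as the panel member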
[9] = molecular target: STE20-like serine/threonine-protein kinase (Homo sapiens, UniProt Q9H2G2)
[10] = molecular target: Dual specificity tyrosine-phosphorylation-regulated kinase 4 (Homo sapiens, UniProt Q9NR20)
SRSF protein kinase 1 = SRSF protein kinase 1 (Homo sapiens, UniProt Q96SB4);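 further: measured as one member of a kinome-wide kinase profiling panel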
[11] = molecular target: Interleukin-1 receptor-associated kinase 1 (Homo sapiens, UniProt P51617);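 further: IRAK1 tested as one member of a kinome panel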
Misshapen-like kinase 1 = Misshapen-like kinase 1 (Homo sapiens, UniProt Q8N4C8);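 further: kinome panel screen with MINK as the panel member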
[12] = molecular target: MAP kinase-activated protein kinase 5 (Homo sapiens, UniProt Q8IW41);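 further: measured as one member of a kinome panel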
[13] = molecular target: Casein kinase I isoform alpha (Homo sapiens, UniProt P48729)
Focal adhesion kinase 1 = Focal adhesion kinase 1 (Homo sapiens, UniProt Q05397);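 further: measured as one member of a kinome panel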
[14] = molecular target: Testis-specific serine/threonine-protein kinase 1 (Homo sapiens, UniProt Q9BXA7)
[15] = molecular target: Proto-oncogene tyrosine-protein kinase ROS (Homo sapiens, UniProt P08922);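 further: ROS1 tested as one member of a kinome-wide kinase panel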
SUMO-activating enzyme = SUMO-activating enzyme (Homo sapiens, UniProt Q9UBT2); test: SUMOylation inhibitor hit validation, confirmation, SUMOylation inhibitor project, biochemical, AlphaScreen (AID 2018)
Hexokinase HKDC1 = molecular target: T1, Hexokinase HKDC1 (Homo sapiens, UniProt Q2TB90); test: HKDC1 hexokinase inhibitors, dose response, biochemical, W721R variant (AID 504729)
T1 sequence (Q2TB90 whole entry): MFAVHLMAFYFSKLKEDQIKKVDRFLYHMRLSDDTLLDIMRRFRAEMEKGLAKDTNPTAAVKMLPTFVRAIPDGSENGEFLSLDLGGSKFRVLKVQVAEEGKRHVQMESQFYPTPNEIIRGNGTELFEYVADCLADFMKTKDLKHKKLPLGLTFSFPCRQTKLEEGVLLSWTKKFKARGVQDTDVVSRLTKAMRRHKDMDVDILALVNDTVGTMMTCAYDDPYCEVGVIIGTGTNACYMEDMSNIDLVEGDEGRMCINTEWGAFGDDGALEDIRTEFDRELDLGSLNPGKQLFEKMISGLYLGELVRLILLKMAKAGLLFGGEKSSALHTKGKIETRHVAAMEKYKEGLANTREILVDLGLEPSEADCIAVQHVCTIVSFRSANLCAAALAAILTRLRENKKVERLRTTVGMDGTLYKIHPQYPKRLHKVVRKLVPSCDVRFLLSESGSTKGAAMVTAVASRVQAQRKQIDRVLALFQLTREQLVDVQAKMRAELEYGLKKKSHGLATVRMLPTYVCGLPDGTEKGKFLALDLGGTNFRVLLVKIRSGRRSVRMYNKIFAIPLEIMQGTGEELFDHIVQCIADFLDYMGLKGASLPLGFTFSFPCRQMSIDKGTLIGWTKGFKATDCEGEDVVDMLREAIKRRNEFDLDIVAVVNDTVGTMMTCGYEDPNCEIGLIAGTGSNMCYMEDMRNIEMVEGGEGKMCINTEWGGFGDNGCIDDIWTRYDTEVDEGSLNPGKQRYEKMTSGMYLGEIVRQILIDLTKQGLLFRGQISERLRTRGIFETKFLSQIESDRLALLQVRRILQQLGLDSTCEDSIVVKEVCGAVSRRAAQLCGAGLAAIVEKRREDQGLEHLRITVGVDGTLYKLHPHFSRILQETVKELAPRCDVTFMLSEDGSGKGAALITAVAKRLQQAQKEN

[16] = molecular target: Glycogen synthase kinase-3 beta (Homo sapiens, UniProt P49841);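 further: value comes from a broad kinome profiling panel, with GSK3B as the panel member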
[17] = molecular target: cAMP-dependent protein kinase catalytic subunit alpha (Homo sapiens, UniProt P17612)
[18] = molecular target: Serine/threonine-protein kinase PLK3 (Homo sapiens, UniProt Q9H4B4)
[19] = molecular target: Protein kinase C delta type (Homo sapiens, UniProt Q05655)

Chain of Focal adhesion kinase 1 (Q05397 whole entry): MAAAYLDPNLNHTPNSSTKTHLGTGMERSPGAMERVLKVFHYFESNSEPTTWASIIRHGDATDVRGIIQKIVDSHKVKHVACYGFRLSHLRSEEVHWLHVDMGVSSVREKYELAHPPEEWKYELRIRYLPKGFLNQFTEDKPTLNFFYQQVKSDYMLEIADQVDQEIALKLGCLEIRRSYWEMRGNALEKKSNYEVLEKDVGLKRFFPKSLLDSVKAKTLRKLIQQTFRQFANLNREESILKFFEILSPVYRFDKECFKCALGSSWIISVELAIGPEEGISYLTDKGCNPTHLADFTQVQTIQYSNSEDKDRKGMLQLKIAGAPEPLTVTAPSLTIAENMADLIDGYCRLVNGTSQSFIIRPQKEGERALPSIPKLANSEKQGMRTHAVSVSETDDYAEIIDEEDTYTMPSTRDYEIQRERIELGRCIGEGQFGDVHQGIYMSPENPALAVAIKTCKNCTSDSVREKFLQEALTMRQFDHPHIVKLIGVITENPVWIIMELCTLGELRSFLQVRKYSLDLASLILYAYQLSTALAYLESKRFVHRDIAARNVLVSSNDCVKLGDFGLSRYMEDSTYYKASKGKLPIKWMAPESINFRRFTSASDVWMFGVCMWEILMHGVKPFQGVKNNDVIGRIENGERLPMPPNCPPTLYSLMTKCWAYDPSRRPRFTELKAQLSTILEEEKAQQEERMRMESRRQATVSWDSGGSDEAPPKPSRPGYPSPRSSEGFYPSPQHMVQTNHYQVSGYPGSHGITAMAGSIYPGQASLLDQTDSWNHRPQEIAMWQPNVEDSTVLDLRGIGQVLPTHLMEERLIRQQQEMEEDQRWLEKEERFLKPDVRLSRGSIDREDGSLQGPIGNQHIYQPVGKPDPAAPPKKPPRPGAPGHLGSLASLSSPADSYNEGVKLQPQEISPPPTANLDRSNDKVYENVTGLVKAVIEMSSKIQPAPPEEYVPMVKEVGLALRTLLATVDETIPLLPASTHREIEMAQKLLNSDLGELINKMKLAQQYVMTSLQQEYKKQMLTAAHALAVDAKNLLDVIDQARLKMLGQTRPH
Chain of Casein kinase I isoform alpha (P48729 whole entry, canonical isoform): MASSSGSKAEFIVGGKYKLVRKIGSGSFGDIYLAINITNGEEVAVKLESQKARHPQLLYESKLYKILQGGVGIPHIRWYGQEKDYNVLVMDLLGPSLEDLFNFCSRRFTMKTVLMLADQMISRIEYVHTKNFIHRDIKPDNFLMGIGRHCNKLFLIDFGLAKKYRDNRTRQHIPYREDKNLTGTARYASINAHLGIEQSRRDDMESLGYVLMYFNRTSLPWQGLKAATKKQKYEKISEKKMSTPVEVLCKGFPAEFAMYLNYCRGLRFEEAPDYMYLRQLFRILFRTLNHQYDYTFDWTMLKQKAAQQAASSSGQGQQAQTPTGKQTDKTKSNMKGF
Chain of Testis-specific serine/threonine-protein kinase 1 (Q9BXA7 whole entry): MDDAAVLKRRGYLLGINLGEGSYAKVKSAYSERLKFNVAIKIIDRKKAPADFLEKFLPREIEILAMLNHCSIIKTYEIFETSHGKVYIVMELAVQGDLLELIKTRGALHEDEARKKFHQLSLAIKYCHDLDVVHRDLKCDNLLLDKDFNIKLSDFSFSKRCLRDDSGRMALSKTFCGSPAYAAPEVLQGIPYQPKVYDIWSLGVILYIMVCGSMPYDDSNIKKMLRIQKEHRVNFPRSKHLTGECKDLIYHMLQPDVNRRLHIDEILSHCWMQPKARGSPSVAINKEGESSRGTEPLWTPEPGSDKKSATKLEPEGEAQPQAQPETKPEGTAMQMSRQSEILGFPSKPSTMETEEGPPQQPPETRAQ
Chain of SUMO-activating enzyme (Q9UBE0 whole entry): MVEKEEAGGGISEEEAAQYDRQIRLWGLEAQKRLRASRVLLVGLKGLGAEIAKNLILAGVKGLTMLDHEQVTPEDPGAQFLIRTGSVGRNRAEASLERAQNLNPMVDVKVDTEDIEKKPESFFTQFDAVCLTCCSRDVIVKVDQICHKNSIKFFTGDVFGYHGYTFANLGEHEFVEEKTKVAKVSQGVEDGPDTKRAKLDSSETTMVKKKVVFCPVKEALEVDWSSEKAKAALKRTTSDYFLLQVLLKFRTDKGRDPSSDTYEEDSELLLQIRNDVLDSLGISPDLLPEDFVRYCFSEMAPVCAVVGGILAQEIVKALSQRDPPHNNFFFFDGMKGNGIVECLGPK
Chain of SUMO-activating enzyme (Q9UBT2 whole entry): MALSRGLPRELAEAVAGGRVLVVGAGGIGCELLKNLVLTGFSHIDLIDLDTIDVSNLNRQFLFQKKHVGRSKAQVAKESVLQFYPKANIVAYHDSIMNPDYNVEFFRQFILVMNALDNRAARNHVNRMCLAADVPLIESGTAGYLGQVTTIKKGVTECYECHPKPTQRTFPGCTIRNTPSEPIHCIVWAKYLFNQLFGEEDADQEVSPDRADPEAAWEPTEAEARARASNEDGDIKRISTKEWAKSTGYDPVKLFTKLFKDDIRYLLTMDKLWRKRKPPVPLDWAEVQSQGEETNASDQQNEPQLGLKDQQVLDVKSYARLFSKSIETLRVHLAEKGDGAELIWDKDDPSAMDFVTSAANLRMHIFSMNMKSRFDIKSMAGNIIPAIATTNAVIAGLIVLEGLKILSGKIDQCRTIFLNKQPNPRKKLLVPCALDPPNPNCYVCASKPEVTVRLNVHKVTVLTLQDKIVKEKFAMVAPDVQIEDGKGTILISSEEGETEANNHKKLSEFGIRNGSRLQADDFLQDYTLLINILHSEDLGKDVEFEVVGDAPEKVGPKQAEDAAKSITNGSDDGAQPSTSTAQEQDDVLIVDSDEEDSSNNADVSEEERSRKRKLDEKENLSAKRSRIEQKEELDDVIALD
Chain of MAP kinase-activated protein kinase 5 (Q8IW41 whole entry, canonical isoform): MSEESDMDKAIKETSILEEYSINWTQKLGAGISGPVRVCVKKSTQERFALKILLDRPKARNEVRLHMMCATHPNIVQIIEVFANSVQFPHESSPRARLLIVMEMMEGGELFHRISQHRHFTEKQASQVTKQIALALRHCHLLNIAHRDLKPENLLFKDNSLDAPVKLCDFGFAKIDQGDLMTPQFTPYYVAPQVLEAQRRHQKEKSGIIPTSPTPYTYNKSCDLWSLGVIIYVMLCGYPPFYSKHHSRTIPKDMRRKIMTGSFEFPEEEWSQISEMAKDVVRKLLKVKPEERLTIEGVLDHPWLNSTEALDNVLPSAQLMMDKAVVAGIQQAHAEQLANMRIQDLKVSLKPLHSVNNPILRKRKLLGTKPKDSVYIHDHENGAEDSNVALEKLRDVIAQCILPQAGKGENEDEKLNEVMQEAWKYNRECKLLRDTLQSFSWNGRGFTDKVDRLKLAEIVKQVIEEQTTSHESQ
Chain of Glycogen synthase kinase-3 beta (P49841 whole entry): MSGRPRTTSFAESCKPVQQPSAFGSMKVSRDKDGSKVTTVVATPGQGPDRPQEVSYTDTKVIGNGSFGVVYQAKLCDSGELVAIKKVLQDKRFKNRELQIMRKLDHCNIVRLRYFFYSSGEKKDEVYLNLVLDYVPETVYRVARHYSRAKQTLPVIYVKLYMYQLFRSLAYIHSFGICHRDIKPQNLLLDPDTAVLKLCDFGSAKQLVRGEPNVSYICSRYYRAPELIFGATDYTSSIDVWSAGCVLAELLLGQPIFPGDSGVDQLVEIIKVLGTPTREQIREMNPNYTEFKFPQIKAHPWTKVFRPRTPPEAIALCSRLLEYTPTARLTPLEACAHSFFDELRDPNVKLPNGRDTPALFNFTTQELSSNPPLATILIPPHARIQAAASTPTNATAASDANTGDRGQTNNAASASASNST
Chain of Tyrosine-protein kinase FRK (P42685 whole entry): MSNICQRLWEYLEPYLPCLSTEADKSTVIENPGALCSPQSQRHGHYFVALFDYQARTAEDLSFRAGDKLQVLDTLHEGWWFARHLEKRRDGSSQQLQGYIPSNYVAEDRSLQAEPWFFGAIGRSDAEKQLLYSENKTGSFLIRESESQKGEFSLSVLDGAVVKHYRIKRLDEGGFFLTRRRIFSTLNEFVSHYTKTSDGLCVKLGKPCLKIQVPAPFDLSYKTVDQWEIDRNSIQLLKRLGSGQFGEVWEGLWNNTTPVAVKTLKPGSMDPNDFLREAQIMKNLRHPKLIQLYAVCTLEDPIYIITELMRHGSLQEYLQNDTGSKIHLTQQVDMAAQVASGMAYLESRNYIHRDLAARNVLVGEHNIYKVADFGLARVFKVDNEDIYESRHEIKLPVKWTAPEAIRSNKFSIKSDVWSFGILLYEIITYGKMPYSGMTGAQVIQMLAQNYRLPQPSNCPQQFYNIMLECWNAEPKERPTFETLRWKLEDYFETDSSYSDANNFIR
Chain of Megakaryocyte-associated tyrosine-protein kinase (P42679 whole entry): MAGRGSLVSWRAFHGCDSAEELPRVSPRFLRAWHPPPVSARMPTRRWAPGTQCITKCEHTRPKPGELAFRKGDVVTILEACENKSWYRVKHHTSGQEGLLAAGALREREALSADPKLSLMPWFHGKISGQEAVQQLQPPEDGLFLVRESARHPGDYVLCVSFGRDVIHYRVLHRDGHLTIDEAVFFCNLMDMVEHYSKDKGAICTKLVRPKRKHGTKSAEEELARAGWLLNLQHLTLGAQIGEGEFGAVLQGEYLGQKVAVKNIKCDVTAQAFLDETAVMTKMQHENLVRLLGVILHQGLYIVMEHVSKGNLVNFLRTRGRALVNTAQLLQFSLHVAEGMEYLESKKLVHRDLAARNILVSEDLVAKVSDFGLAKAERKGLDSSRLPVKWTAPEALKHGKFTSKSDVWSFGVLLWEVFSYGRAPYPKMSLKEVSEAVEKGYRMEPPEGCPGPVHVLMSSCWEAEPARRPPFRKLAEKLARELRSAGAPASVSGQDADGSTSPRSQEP

Ki [1]: 10 nM (active) | Ki [2]: > 1260 nM (inactive) | Ki [3]: 12.6 nM (active) | Ki [4]: 20 nM (active) | Ki [5]: 25.1 nM (active) | Ki [6]: > 2510 nM (inactive) | Ki [7]: > 2000 nM (inactive) | Ki [8]: > 398 nM (inactive) | Ki [9]: 200 nM (active) | Ki [10]: 126 nM (active) | Ki (SRSF protein kinase 1): 631 nM (active) | Ki [11]: 316 nM (active) | Ki (Misshapen-like kinase 1): 3.98 nM (active) | Ki [12]: > 1580 nM (inactive) | Ki [13]: 2510 nM (active) | Ki (Focal adhesion kinase 1): > 1580 nM (inactive) | Ki [14]: 31.6 nM (active) | Ki [15]: 398 nM (active)
Structure (SMILES): Cc1n[nH]c2cnc(-c3cncc(OCC(N)Cc4cccc(C(F)(F)F)c4)c3)cc12 (centres undefined)

Structure (SMILES): CC(=O)NC1C(=O)N(CCN2CCOCC2)c2ccc(Cl)cc21 (centres undefined)
IC50 (SUMO-activating enzyme): 5250 nM (active) | IC50 (Hexokinase HKDC1): 6750 nM (active)

Ki [16]: 3160 nM (active) | Ki [17]: > 7940 nM (inactive) | Ki [18]: 794 nM (active) | Ki [19]: > 7940 nM (inactive)
Structure (SMILES): Cc1c(C=O)c(O)n2c(nc3ccccc32)c1C#N
